In ChEMBL document CHEMBL1147757, “Design and preparation of 2-benzamido-pyrimidines as inhibitors of IKK” (Bioorg Med Chem Lett, 2006):

What was measured:
[1] = biological target: T1, Inhibitor of nuclear factor kappa-B kinase subunit alpha (Homo sapiens, UniProt O15111); assay: Inhibitory activity against IKK1
T1 sequence (O15111 whole entry): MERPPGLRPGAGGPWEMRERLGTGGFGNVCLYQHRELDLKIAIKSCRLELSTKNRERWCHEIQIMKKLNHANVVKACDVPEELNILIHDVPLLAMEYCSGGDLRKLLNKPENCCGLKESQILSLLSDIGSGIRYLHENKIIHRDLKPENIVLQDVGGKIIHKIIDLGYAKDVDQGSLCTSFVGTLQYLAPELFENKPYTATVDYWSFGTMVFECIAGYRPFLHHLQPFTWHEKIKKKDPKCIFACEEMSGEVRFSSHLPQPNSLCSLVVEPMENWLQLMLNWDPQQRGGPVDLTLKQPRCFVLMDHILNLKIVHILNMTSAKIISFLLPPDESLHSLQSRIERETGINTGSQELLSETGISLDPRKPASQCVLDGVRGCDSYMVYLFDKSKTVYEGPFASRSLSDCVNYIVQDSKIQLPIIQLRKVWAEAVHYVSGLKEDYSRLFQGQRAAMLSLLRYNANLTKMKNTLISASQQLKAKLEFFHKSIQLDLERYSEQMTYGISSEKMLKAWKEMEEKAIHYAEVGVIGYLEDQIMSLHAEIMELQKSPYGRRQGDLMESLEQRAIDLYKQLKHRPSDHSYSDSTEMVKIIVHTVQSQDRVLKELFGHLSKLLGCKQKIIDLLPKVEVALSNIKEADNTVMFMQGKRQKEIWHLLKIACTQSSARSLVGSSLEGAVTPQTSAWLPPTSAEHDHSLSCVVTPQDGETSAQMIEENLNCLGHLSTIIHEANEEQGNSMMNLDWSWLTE

[2] = biological target: T2, Inhibitor of nuclear factor kappa-B kinase subunit beta (Homo sapiens, UniProt O14920); assay: Inhibitory activity against IKK2
T2 sequence (O14920 whole entry): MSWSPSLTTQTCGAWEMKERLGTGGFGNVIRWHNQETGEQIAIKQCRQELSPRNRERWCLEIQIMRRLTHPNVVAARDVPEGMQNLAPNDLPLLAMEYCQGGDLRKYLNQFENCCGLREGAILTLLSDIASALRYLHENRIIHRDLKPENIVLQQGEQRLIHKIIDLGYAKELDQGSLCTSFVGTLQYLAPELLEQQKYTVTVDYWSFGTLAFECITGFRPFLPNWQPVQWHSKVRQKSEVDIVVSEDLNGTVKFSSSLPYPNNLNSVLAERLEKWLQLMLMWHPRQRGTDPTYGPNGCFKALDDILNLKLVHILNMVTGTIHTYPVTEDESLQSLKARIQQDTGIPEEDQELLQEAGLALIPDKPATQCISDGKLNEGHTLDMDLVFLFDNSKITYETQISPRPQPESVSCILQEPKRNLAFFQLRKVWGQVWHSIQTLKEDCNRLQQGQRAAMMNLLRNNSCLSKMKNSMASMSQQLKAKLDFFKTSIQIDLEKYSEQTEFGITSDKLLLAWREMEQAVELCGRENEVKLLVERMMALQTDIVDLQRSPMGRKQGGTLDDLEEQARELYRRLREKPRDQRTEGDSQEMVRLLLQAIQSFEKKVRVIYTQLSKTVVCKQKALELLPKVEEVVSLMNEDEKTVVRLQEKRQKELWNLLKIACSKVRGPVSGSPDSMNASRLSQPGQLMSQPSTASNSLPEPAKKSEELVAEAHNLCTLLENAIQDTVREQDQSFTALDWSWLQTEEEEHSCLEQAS

[3] = biological target: T3, Inhibitor of NF-kappa-B kinase (IKK) (Homo sapiens, UniProt O14920+O15111+Q9Y6K9); assay: Inhibitory activity against IKK complex isolated from HeLa cells; format: cell-based
[4] = biological target: T3, Inhibitor of NF-kappa-B kinase (IKK); assay: Inhibition of TNF-alpha-stimulated IkappaBalpha degradation; format: functional
[5] = biological target: T3, Inhibitor of NF-kappa-B kinase (IKK); assay: Inhibition of TNF-alpha-stimulated expression of E-selectin in HUVEC cells; format: functional, cell-based
[6] = biological target: T3, Inhibitor of NF-kappa-B kinase (IKK); assay: Inhibition of TNF-alpha-stimulated expression of ICAM1 in HUVEC cells; format: functional, cell-based
[7] = biological target: T3, Inhibitor of NF-kappa-B kinase (IKK); assay: Inhibition of TNF-alpha-stimulated expression of VCAM1 in HUVEC cells; format: functional, cell-based
[8] = Inhibition of IFN-gamma-stimulated expression of beta-2 microglobulin; format: functional
[9] = Inhibition of IFN-gamma-stimulated expression of HLA-DR; format: functional
[10] = tested on: Rattus norvegicus; assay: Inhibition of LPS-induced TNFalpha release into plasma in rat at 30 mg/kg, sc; format: functional; settings: route subcutaneous
[11] = tested on: Rattus norvegicus; assay: Inhibition of LPS-induced TNFalpha release into plasma in rat at 30 mg/kg, po; format: functional
[12] = biological target: T3, Inhibitor of NF-kappa-B kinase (IKK); assay: Inhibition of LPS-induced TNFalpha release from human PBMC; format: functional
[13] = tested on: Mus musculus; assay: Inhibition of thioglycollate-induced polymorphonuclear neutrophil release in mouse peritoneum at 10 mg/kg, sc; format: functional; settings: route subcutaneous

T3 sequence (Q9Y6K9 whole entry, one chain of several): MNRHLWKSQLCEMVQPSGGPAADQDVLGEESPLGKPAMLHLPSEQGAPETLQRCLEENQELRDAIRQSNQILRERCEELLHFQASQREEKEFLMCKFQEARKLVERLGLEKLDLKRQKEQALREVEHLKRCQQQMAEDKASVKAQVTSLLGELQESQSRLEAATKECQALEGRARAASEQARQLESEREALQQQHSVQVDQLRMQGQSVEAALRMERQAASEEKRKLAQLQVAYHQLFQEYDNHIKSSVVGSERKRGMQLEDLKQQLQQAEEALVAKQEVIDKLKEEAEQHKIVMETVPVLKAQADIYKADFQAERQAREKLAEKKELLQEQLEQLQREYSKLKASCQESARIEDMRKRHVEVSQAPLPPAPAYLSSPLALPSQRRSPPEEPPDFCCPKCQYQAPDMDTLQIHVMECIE

Row | Structure (SMILES) | IC50 [1] [nM] | IC50 [2] [nM] | IC50 [3] [nM] | IC50 [4] [nM] | IC50 [5] [nM] | IC50 [6] [nM] | IC50 [7] [nM] | IC50 [8] [nM] | IC50 [9] [nM] | inhibition in vivo at 30 mg/kg [10] [%] | inhibition in vivo at 30 mg/kg [11] [%] | IC50 [12] [nM] | inhibition in vivo at 10 mg/kg [13] [%]
1 | CC(C)(O)CCc1ccc(-c2ccnc(Nc3ccc(C(=O)N4CCC(N5CCCC5)CC4)cc3)n2)s1 | 700 | 50 | 50 | 2000 | 450 | 500 | 600 | 5000 | 3000 | – | – | – | –
2 | O=C(c1ccc(Nc2nccc(-c3cc4ccccc4s3)n2)cc1)N1CCC(N2CCCC2)CC1 | 200 | 40 | 70 | 1000 | 500 | 300 | 300 | 2000 | 2000 | 86 | 75 | 300 | 50
3 | CC(C)(N)C#Cc1ccc(-c2ccnc(Nc3ccc(C(=O)N4CCC(N5CCCC5)CC4)cc3)n2)s1 | 500 | 150 | 200 | – | – | – | – | – | – | – | – | – | –
4 | O=C(c1ccc(Nc2nccc(-c3cc4ccccc4s3)n2)cc1Cl)N1CCC(N2CCCC2)CC1 | 400 | 90 | 250 | – | – | – | – | – | – | – | – | – | –
5 | CN(C)CCNC(=O)c1ccc(Nc2nccc(-c3cc4ccccc4s3)n2)cc1 | 1200 | 200 | 300 | 5000 | 500 | 500 | 500 | 2000 | – | – | – | – | –
6 | O=C(O)c1cccc(Nc2nccc(-c3cc4ccccc4s3)n2)c1 | – | 1000 | – | – | – | – | – | – | – | – | – | – | –
7 | COc1cc(Nc2nccc(-c3cc4ccccc4s3)n2)ccc1C(=O)N1CCC(N2CCCC2)CC1 | 100 | 50 | 150 | – | – | – | – | – | – | – | – | – | –
8 | COCCCc1ccc(-c2ccnc(Nc3ccc(C(=O)N4CCC(N5CCCC5)CC4)cc3)n2)s1 | 1000 | 100 | 100 | 1000 | 400 | 600 | 500 | 5000 | 2000 | – | – | – | –
9 | O=C(c1ccc(Nc2nccc(-c3cc4ccccc4s3)n2)cc1)N1CCCC1 | 3800 | 900 | 8500 | 20000 | 2000 | 2000 | 2000 | 10000 | 250 | – | – | – | –
10 | O=C(O)c1ccc(Nc2nccc(-c3cc4ccccc4s3)n2)cc1 | 5000 | 600 | 18000 | 100000 | 50000 | 50000 | 50000 | 100000 | 100000 | – | – | – | –
11 | CC(C)(N)CCc1ccc(-c2ccnc(Nc3ccc(C(=O)N4CCC(N5CCCC5)CC4)cc3)n2)s1 | 30 | 40 | 40 | – | – | – | – | – | – | – | – | – | –
12 | O=C(O)Cc1ccc(Nc2nccc(-c3cc4ccccc4s3)n2)cc1 | – | 2200 | – | – | – | – | – | – | – | – | – | – | –
13 | CC(C)CCNC(=O)c1ccc(Nc2nccc(-c3cc4ccccc4s3)n2)cc1 | – | > 100000 | – | – | – | – | – | – | – | – | – | – | –
14 | CC(=O)NC(C)(C)CCc1ccc(-c2ccnc(Nc3ccc(C(=O)N4CCC(N5CCCC5)CC4)cc3)n2)s1 | 30000 | 150 | 800 | – | – | – | – | – | – | – | – | – | –
15 | O=C(NCCN1CCCC1)c1ccc(Nc2nccc(-c3cc4ccccc4s3)n2)cc1 | 1200 | 400 | 500 | – | – | – | – | – | – | – | – | – | –
16 | O=C(c1ccc(Nc2nccc(-c3ccc(CCCCO)s3)n2)cc1)N1CCC(N2CCCC2)CC1 | 500 | 25 | 40 | 2000 | 200 | 200 | 200 | 5000 | 2500 | – | – | – | –
17 | CN(C)C1CCN(C(=O)c2ccc(Nc3nccc(-c4cc5ccccc5s4)n3)cc2)CC1 | 150 | 40 | 80 | 2000 | 300 | 400 | 400 | 2000 | 2000 | – | – | – | –
18 | O=C(O)c1ccccc1Nc1nccc(-c2cc3ccccc3s2)n1 | > 100000 | > 100000 | > 100000 | – | – | – | – | – | – | – | – | – | –
19 | CCC(N)(CC)CCc1ccc(-c2ccnc(Nc3ccc(C(=O)N4CCC(N5CCCC5)CC4)cc3)n2)s1 | 30 | 60 | 30 | – | – | – | – | – | – | – | – | – | –
20 | NCCNC(=O)c1ccc(Nc2nccc(-c3cc4ccccc4s3)n2)cc1 | 3700 | 600 | 4400 | – | – | – | – | – | – | – | – | – | –
